In patent US11090324B2, “Composition, for remedying female climacteric syndrome symptoms, comprising tectorigenin 7-O-Xylosylglucoside” (LG Household & Health Care Ltd., priority 2017, dated 2021):

Key:
[1] = system: ovariectomy (OVX) female Sprague-Dawley rats; experiment: Serum CTX level (bone resorption marker) in ovariectomized rats, ELISA; format: in vivo, rat; settings: for CTX: serum, 8 weeks, sham 42.3, OVX control 78.2
Procedure: 11-12 week-old female Sprague-Dawley rats were subjected to sham operation (group 1, n=10) or ovariectomy (OVX) (groups 2-8, n=10 per each group). After a week from the operation, 0.01 mL of a sample per body weight (g) of each rat was administered orally every day for 4 weeks. 17β-Estradiol (E2) was administered to the positive control group and a 1:5:5 mixture of the three compounds tectorigenin, tectoridin and tectorigenin 7-O-xylosylglucoside was administered to the test groups. 4 weeks after the administration, the skin temperature at 2 cm where the tail starts was measured using an infrared thermometer. [table] In order to measure CTX (C-terminal telopeptide of type I collagen), which is a marker related with bone resorption, the same rats as in Example 2 were orally administered with a sample for 8 weeks and then serum was collected. The CTX level in the serum was measured using the rat C-telopeptide of type I collagen ELISA kit (MyBioSource) according to the manufacturer's instructions.

estrogen receptors = experiment: ERE (estrogen response element) reporter assay; format: cell-based; settings: sum of the concentrations of the three compounds 10 ppm; with respect to negative control group (1.0)
Procedure: ERE (estrogen response element) reporter assay was performed to investigate the activity of the three compounds tectorigenin 7-O-xylosylglucoside, tectorigenin and tectoridin for estrogen receptors. Tectorigenin, tectoridin and tectorigenin 7-O-xylosylglucoside were treated at ratios described in Table 1 (the sum of the concentrations of the three compounds was 10 ppm).

[2] = system: ovariectomy (OVX) female Sprague-Dawley rats; experiment: Tail skin temperature of ovariectomized rats (vasomotor symptoms); format: in vivo, rat; settings: oral 4 weeks, mixture 5 and 10 mg/kg/day, single compounds 10 mg/kg/day
Source text: It is known that 75% of […] women experience vasomotor symptoms. Facial flushing (hot flush) is the representative symptom where the skin on face, neck and chest is reddened abruptly, accompanied by unpleasant flushing and sweating. The change in the vasomotor symptoms can be evaluated by measuring the change in skin temperature. In an animal experiment, it can be measure by the skin temperature of the rat tail (Guidelines for evaluation of health functional food, ‘Helpful for health of […] women’, National Institute of Food and Drug Safety Evaluation). 11-12 week-old female Sprague-Dawley rats were subjected to sham operation (group 1, n=10) or ovariectomy (OVX) (groups 2-8, n=10 per each group). After a week from the operation, 0.01 mL of a sample per body weight (g) of each rat was administered orally every day for 4 weeks. 17β-Estradiol (E2) was administered to the positive control group and a 1:5:5 mixture of the three compounds tectorigenin, tectoridin and tectorigenin 7-O-xylosylglucoside was administered to the test groups. 4 weeks after the administration, the skin temperature at 2 cm where the tail starts was measured using an infrared thermometer. [table]

SMILES	CTX ([1]; 10 mg/kg/day oral) [ng/mL]	CTX ([1]; 0.5 mg/kg/day oral) [ng/mL]	Activity for estrogen receptors Fold induction (estrogen receptors) [fold]	Effect on CTX level / bone resorption (in words) ([1]; oral 8 weeks, compared to the OVX group or to tectorigenin and tectoridin)	Effect on increase in tail temperature caused by estrogen deficiency (in words) [2]
COc1c(O)cc2occ(-c3ccc(O)cc3)c(=O)c2c1O [Tectorigenin, tectorigenin]	71.5				
COc1c(O[C@@H]2O[C@H](CO)[C@@H](O)[C@H](O)[C@H]2O)cc2occ(-c3ccc(O)cc3)c(=O)c2c1O [Tectoridin, tectoridin]	70.4				
C[C@]12CC[C@@H]3c4ccc(O)cc4CC[C@H]3[C@@H]1CC[C@@H]2O [17β-estradiol (E2), 17β-Estradiol, reference compound]		52.6			
COc1c(O[C@@H]2O[C@H](CO[C@@H]3OC[C@@H](O)[C@H](O)[C@H]3O)[C@@H](O)[C@H](O)[C@H]2O)cc2occ(-c3ccc(O)cc3)c(=O)c2c1O [Tectorigenin 7-O-xylosylglucoside, tectorigenin 7-O-xylosylglucoside]	58.4		34	most inhibited bone resorption	best effect of suppressing increase in the tail temperature
